# “Also recorded” adds a separate entry of the source.
# Tests used:
# [1] = Liver microsomal stability, rat; format: in vitro ADME
# [2] = Chemical pharmacokinetic (PK) analysis, blood/plasma concentration by LC-MS/MS; format: in vivo; conditions: FIG. 2A
# Protocol: For PK analysis, 5 mg/kg of JH4 in 10% DMSO, 5% Tween […] solution was intravenously injected and 10 mg/kg of JH4 in 10% NMP and 90% PEG400 solution was per orally delivered. At the setting time-points, blood concentration of JH4 was determined by LC-MS/MS analysis and the PK analysis for other chemicals was also tested by the similar protocol.
# CYP2C9 = CYP2C9 (Homo sapiens, UniProt P11712); test: CYP inhibition CYP2C9; format: in vitro ADME
# Protocol: (§6) In vitro ADME studies (plasma protein binding, CYP inhibition, microsomal stability, plasma stability and hERG inhibition) were performed by New drug development center though standard protocols.
# CYP1A2 = biological target: T1, CYP1A2 (Homo sapiens, UniProt P05177); test: CYP inhibition CYP1A2; format: in vitro ADME
# T1 sequence (P05177 1-516): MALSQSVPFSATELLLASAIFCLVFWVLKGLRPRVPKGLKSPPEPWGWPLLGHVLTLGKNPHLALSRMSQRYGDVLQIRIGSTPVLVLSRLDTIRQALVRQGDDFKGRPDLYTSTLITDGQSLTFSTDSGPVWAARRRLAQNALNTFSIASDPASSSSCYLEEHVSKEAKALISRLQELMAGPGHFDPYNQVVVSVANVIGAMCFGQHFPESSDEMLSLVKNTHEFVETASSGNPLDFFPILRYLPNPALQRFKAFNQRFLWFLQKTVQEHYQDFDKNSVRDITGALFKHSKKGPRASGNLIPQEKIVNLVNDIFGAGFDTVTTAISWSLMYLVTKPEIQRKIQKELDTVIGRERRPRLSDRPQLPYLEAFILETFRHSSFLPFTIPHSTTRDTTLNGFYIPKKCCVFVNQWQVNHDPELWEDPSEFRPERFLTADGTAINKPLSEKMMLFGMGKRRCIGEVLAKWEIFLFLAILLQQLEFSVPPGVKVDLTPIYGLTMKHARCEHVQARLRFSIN
# Protocol: as §6
# [3] = system: collagen 1A expression in normal fibroblast; test: Collagen 1A expression in normal fibroblasts 9N and N46 (Western blot); format: cell-based, human; conditions: normal fibroblast 9N and N46, 2 or 5 μM, 24 hours, FIG. 5B
# Protocol: Human keratinocyte HaCaT cells and normal fibroblast 9N (GM 00038, person) and N46 (AG13299, person) were treated with 2 or 5 μM SLC-D011 and incubated for 24 hours and then the amount of collagen 1A expression was confirmed in HaCaT cells and fibroblasts was confirmed.
# HGPS cells = test: Immunofluorescence staining of HGPS cells (nuclear morphology, progerin, H3K9me3); format: cell-based, Human
# Protocol: (§1) Human fibroblast cells from HGPS patients (AG03198, person; AG03199; person), WS patients (AG06300, person; AG03141, person; AG00780, person) and controls (GM 00038, person) were obtained from the Coriell Cell Repositories (Camden, N.J., USA) and were maintained in EMEM, containing 15% FBS, 2 mM glutamine or HEMEM with 26 mM HEPES without antibiotics.
# (§2) Cells were seeded on a cover glass and transfected with the indicated vectors.
# (§3) After fixing with 100% methanol or 1% paraformaldehyde (PFA) for 1 h at 4° C., cells were incubated with blocking buffer (PBS+anti-human-Ab; 1:400) for 1 h.
# (§4) After washing with PBS twice, cells were incubated with anti-Lamin A/C, Progerin or H3K9Me3 in blocking buffer (1:200) overnight and sequentially with anti-goat Ab-FITC or anti-rabbit Ab-rhodamin in blocking buffer (1:500) for 7 h and mounted, and nucleus was stained with DAPI. Thereafter Immunofluorescence signal was detected by fluorescence microscopy (Zeiss and Logos).
# (§5) For counting nuclear deformed cell, obtained immunofluorescence images were used. Nuclear membrane showing abnormalities, dependent on Lamin A staining, were counted from randomly selected field. Counted cells were calculated percentage.
# [4] = Stability in monoolein-based solution on heating and sonication (LC-MS); format: physicochemical; conditions: heating at 80° C. and sonication, FIG. 3B
# Plasma stability, human = format: in vitro ADME
# Plasma protein = Plasma protein binding, rat; format: in vitro ADME
# Protocol: as §6
# [5] = system: progerin expression in progerin-transfected 293 cells; test: Progerin expression analysis in progerin-transfected 293 cells (Western blot); format: cell-based; conditions: 24 hours, FIG. 1D
# Protocol: HEK293 cell line, obtained from ATCC, were maintained in liquid medium (DMEM) containing 10% FBS and 1% antibiotics at 37° C.
# Whole-cell lysates were prepared in RIPA.
# 15 μg of cell extracts were separated by SDS-PAGE and transferred onto a PVDF membrane.
# The membrane was incubated for 1 h to overnight at 4° C. with primary antibody, followed by reaction with a secondary antibody at room temperature for 1 h.
# Peroxidase activity was detected by chemiluminescence with ECL kit (Intron, Seoul, Korea) as recommended by its manufacturer.
# hERG ion channel = hERG ion channel (Homo sapiens, UniProt Q12809); test: hERG inhibition (in vitro ADME); conditions: in vitro ADME analysis, FIG. 2B
# [6] = Liver microsomal stability, human; format: in vitro ADME
# Protocol: as §6
# [7] = system: Lmna^G609G/G609G, progeria model mouse; test: Life span, body weight and morphology of Lmna^G609G/G609G progeria model mice; format: in vivo
# Protocol: The experiments were performed in the Association for Assessment and Accreditation of Laboratory Animal Care certified facility, in compliance with animal policies approved by Pusan National University.
# Lmna^G609G/609G mice were generated as timed mating of heterozygous Lmna^+/G609G provided by Carlos López-Otin (Universidad de Oviedo, Asturias, Oviedo, Spain).
# SLC-D011, mixed with DMOS and PBS, were intraperitoneally injected in mice (20 mg/kg twice per week from 5-week-old). In addition, SLC-D011 dissolved at a concentration of 10 mg/ml in monoolein-based solution was orally administrated to mice in 5 times a week and control mice were treated in the same conditions by administering monoolein-based solution alone.
# Lmna^G609G/609G mice were treated with clear chemical solution throughout life span, starting from 5 weeks of age. Lmna^+/G609G were treated via intraperitoneal, starting from 32 weeks of age.
# WS cells = test: Immunofluorescence staining of Werner syndrome (WS) patient cells (nuclear morphology, proliferation, H3K9me3); format: cell-based, Human
# Protocol: as §1, §2, §3, §4, §5
# To measure the cell proliferation, DAPI stained cells were counted from immunofluorescence images.
# [8] = Lmna^G609G/G609G mice, 20 mg/kg i.p injection twice per week from 5 week age, FIG. 2C
# [9] = Lmna^G609G/G609G mice, oral gavage 50 mg/kg daily in monoolein solution from 5 weeks old, FIG. 3C
# CYP2C9, sequence (P11712 whole entry): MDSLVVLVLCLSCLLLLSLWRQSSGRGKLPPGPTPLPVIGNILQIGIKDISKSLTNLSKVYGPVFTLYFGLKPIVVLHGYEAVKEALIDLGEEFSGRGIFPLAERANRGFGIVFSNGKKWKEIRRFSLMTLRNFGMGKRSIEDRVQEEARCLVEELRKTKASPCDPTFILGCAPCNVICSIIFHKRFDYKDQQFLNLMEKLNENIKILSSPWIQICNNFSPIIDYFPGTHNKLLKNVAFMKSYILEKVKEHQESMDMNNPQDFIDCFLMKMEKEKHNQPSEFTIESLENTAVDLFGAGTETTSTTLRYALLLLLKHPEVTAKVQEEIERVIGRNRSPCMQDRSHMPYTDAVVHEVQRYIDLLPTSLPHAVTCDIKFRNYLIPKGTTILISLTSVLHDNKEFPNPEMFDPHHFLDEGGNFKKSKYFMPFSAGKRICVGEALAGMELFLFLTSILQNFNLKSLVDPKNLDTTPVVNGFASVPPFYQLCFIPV
# hERG ion channel, sequence (Q12809 whole entry): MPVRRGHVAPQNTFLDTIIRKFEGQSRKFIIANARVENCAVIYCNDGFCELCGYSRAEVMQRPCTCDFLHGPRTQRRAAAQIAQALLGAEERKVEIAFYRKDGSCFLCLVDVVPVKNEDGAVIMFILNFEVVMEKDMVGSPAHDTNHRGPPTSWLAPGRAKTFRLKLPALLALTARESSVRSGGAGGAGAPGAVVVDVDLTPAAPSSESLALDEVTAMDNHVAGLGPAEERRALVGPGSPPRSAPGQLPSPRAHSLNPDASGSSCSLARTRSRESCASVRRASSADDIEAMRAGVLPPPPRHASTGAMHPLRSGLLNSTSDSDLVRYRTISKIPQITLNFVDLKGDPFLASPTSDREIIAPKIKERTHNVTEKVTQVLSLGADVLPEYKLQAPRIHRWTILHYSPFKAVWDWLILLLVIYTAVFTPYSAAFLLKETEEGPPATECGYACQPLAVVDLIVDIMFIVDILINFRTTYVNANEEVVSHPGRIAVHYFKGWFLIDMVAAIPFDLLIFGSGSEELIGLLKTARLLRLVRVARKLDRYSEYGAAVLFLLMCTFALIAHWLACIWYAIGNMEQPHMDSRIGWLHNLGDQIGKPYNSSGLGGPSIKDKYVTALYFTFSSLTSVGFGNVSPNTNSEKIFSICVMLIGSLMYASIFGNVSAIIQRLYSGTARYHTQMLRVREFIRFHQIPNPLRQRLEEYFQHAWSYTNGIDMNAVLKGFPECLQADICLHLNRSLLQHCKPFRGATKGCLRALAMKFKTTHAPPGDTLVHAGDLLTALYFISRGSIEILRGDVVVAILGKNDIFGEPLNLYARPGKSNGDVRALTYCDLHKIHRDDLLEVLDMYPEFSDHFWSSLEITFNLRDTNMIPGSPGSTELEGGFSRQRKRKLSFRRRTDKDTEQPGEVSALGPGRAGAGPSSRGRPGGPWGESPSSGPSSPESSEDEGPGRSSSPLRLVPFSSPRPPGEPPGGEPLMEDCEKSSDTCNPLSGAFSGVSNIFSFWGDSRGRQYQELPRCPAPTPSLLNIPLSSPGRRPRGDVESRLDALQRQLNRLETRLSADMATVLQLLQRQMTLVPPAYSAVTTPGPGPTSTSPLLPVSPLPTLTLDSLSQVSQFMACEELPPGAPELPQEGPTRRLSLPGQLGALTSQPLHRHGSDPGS
structure (smiles),measurement,setting,value
"CC1(C)Oc2cc3oc(=O)ccc3cc2C[C@@H]1OC/C=C/c1ccccc1 [SLC-D011, (7S)-(+)-8,8-dimethyl-7-(3-phenyl-allyloxy)-7,8-dihydro-6H-pyrano[3,2-g]chromen-2-one]",Liver microsomal stability (% remaining during 30 min) Rat (%),[1],17.4%
same,bioavailability,"[2]; blood, oral, PK analysis, read-out: bioavailability (B.A.)",66%
same,PK profile,[2]; in vivo PK analysis,proper PK profile
same,CYP inhibition CYP2C9,CYP2C9,78.4
same,CYP inhibition CYP1A2,CYP1A2,81.6
same,collagen expression in fibroblasts,[3],increasing collagen expression
same,nuclear abnormality of HGPS cells,"HGPS cells; HGPS cells incubated 48 hr, FIG. 1E",improved nuclear abnormality of HGPS cells
same,progerin expression in HGPS cells,"HGPS cells; HGPS cells incubated 48 hr, progerin staining, FIG. 1E",reduces progerin expression
same,H3K9me3 expression in HGPS cells,"HGPS cells; immunostaining, FIG. 1F",induced H3K9me3 expression
same,stability in solution on heating and ultrasonic treatment,[4],stable without being decomposed even by heating and ultrasonic treatment
same,Plasma stability (% remaining) Human 30 min,"Plasma stability, human; 30 min",>100 % remaining
same,Plasma stability (% remaining) Human 120 min,"Plasma stability, human; 120 min",>100 % remaining
same,Plasma protein binding Rat (% Bound),Plasma protein,99.8 % Bound
same,progerin expression,[5],inhibiting progerin expression; also recorded: obviously suppresses progerin expression
same,hERG ion channel inhibition,hERG ion channel,severe hERG inhibition was not observed
same,Liver microsomal stability (% remaining during 30 min) Human (%),[6],21.5%
same,life-span extended to,"[7]; Lamn^G609G/G609G mice, i.p injection",20 weeks
same,body size and gross morphology,"[7]; Lamn^G609G/G609G mice, i.p injection, FIG. 2D",body size increase and gross morphology were also improved
same,lifespan extension,"[7]; Lamn^G609G/G609G mice, oral administration in olein-based solution",4.5 weeks
same,average (ave) life span,[7]; [8],19.5 weeks
same,maximum (max) life span,[7]; [8],21 weeks
same,body weight increase compared to vehicle group,"[7]; Lmna^G609G/G609G mice, oral administration, FIG. 3D",about 35%
same,body size at 8 weeks old,"[7]; Lmna^G609G/G609G mice, oral administration, FIG. 3E",apparently larger than that of vehicle-mouse
same,average life span,[7]; [9],19.3 weeks
same,maximum life span,[7]; [9],19.5 weeks
same,nuclear morphology of WS cells,"WS cells; WS cells incubated 48 hr, FIG. 4F",improved nuclear morphology
same,H3K9me3 expression in WS cells,"WS cells; WS cells incubated 48 hr, FIG. 4G",induced expression of H3K9me3
same,cell proliferation of WS cells,"WS cells; WS patient cells, FIG. 4F",improved nuclear morphology and cell proliferation

# Source: patent US11008332B2, “Pharmaceutical composition for preventing or treating aging-related diseases containing decursin derivative as active ingredient” (PRG S&TECH INC., priority 2017, dated 2021)
